Tested on: 252836-082-R-J2-PDC tumor spheroids, viability
Assay: Anticancer human tumor 252836-082-R-J2-PDC patient-derived head and neck squamous cell carcinoma cell line growth inhibition [PI3K]
Conditions: spheroids with HUVEC and MSC; for IC50: curve of first compound; for viability, T/C: stronger effect = lower value; active = viability on the fitted dose curve at most 10% of control; inactive = the rest
Outline: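 Complex 3D spheroids (cancer cells + endothelial HUVEC + mesenchymal stem cells); drug pairs of targeted agent x inavolisib/alpelisib/duvelisib/copanlisib; half-log series from ~Cmax, max 10 microM if Cmax unknown; endpoint viability.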

[1] = second compound 0.0316 µM, first compound 0.0316 µM
[2] = second compound 0.0316 µM, first compound 0.1 µM
[3] = second compound 0.0316 µM, first compound 0.316 µM
[4] = second compound 0.0316 µM, first compound 1 µM
[5] = second compound 0.0316 µM, first compound 3.16 µM
[6] = second compound 0.0316 µM, first compound 10 µM
[7] = second compound 0.1 µM, first compound 0.0316 µM
[8] = second compound 0.1 µM, first compound 0.1 µM
[9] = second compound 0.1 µM, first compound 0.316 µM
[10] = second compound 0.1 µM, first compound 1 µM
[11] = second compound 0.1 µM, first compound 3.16 µM
[12] = second compound 0.1 µM, first compound 10 µM
[13] = second compound 0.316 µM, first compound 0.0316 µM
[14] = second compound 0.316 µM, first compound 0.1 µM
[15] = second compound 0.316 µM, first compound 0.316 µM
[16] = second compound 0.316 µM, first compound 1 µM
[17] = second compound 0.316 µM, first compound 3.16 µM
[18] = second compound 0.316 µM, first compound 10 µM
[19] = second compound 1 µM, first compound 0.0316 µM
[20] = second compound 1 µM, first compound 0.1 µM
[21] = second compound 1 µM, first compound 0.316 µM
[22] = second compound 1 µM, first compound 1 µM
[23] = second compound 1 µM, first compound 3.16 µM
[24] = second compound 1 µM, first compound 10 µM
[25] = second compound 3.16 µM, first compound 0.0316 µM
[26] = second compound 3.16 µM, first compound 0.1 µM
[27] = second compound 3.16 µM, first compound 0.316 µM
[28] = second compound 3.16 µM, first compound 1 µM
[29] = second compound 3.16 µM, first compound 3.16 µM
[30] = second compound 3.16 µM, first compound 10 µM
[31] = second compound 10 µM, first compound 0.0316 µM
[32] = second compound 10 µM, first compound 0.1 µM
[33] = second compound 10 µM, first compound 0.316 µM
[34] = second compound 10 µM, first compound 1 µM
[35] = second compound 10 µM, first compound 3.16 µM
[36] = second compound 10 µM, first compound 10 µM
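Also: spheroids exposed to agents for seven days before readout.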
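For viability, T/C in this document: percent of vehicle DMSO control viability so 100% = untreated growth.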

CC(Cn1ccc(-c2ccc(C#N)c(Cl)c2)n1)NC(=O)c1cc(C(C)O)[nH]n1 (stereo unspecified) + Cc1nc(NC(=O)N2CCCC2C(N)=O)sc1-c1ccnc(C(C)(C)C(F)(F)F)c1
inactive: viability, T/C [1] 76.5% | viability, T/C [2] 75.4% | viability, T/C [3] 96% | viability, T/C [4] 85.9% | viability, T/C [5] 94.3% | viability, T/C [6] 71.5% | viability, T/C [7] 99.7% | viability, T/C [8] 85.1% | viability, T/C [9] 80.8% | viability, T/C [10] 85% | viability, T/C [11] 86.2% | viability, T/C [12] 81.5% | viability, T/C [13] 65.4% | viability, T/C [14] 70.9% | viability, T/C [15] 72.6% | viability, T/C [16] 74.5% | viability, T/C [17] 100% | viability, T/C [18] 64.7% | viability, T/C [19] 53.4% | viability, T/C [20] 58.3% | viability, T/C [21] 55.5% | viability, T/C [22] 60.8% | viability, T/C [23] 54.7% | viability, T/C [24] 53% | viability, T/C [25] 46.5% | viability, T/C [26] 48.2% | viability, T/C [27] 44.5% | viability, T/C [28] 55.3% | viability, T/C [29] 40.8% | viability, T/C [30] 42.9% | viability, T/C [31] 34% | viability, T/C [32] 37.3% | viability, T/C [33] 39.2% | viability, T/C [34] 37.3% | viability, T/C [35] 34.2% | viability, T/C [36] 31.1%
< 31.6 nM: IC50 (second compound 3.16 µM) | IC50 (second compound 10 µM)
> 10000 nM: IC50 (second compound 0.0316 µM) | IC50 (second compound 0.1 µM) | IC50 (second compound 0.316 µM) | IC50 (second compound 1 µM)

CC(C)NCC(C(=O)N1CCN(c2ncnc3c2C(C)CC3O)CC1)c1ccc(Cl)cc1 (stereo unspecified) + CC(Nc1ncnc2nc[nH]c12)c1cc2cccc(Cl)c2c(=O)n1-c1ccccc1
1150 nM: IC50 (second compound 0.0316 µM)
742 nM: IC50 (second compound 10 µM)
991 nM: IC50 (second compound 0.316 µM)
980 nM: IC50 (second compound 1 µM)
916 nM: IC50 (second compound 3.16 µM)
1100 nM: IC50 (second compound 0.1 µM)
inactive: viability, T/C [1] 99.4% | viability, T/C [2] 89.4% | viability, T/C [3] 76.7% | viability, T/C [4] 54.5% | viability, T/C [5] 28.6% | viability, T/C [6] 22.1% | viability, T/C [7] 97.9% | viability, T/C [8] 81.1% | viability, T/C [9] 77.4% | viability, T/C [10] 49% | viability, T/C [11] 33.2% | viability, T/C [12] 21.7% | viability, T/C [13] 83.3% | viability, T/C [14] 83.1% | viability, T/C [15] 85% | viability, T/C [16] 48.3% | viability, T/C [17] 38.1% | viability, T/C [18] 20.7% | viability, T/C [19] 95.4% | viability, T/C [20] 98.1% | viability, T/C [21] 65.3% | viability, T/C [22] 51.5% | viability, T/C [23] 33.6% | viability, T/C [24] 20.5% | viability, T/C [25] 75.7% | viability, T/C [26] 74.9% | viability, T/C [27] 75% | viability, T/C [28] 46.5% | viability, T/C [29] 35.4% | viability, T/C [30] 24.2% | viability, T/C [31] 71.3% | viability, T/C [32] 69.2% | viability, T/C [33] 59.6% | viability, T/C [34] 46.3% | viability, T/C [35] 30.4% | viability, T/C [36] 16.6%

C=CC(=O)N1CCN(c2nc(=O)n(-c3c(C)ccnc3C(C)C)c3nc(-c4c(O)cccc4F)c(F)cc23)C(C)C1 (stereo unspecified) + CC(Nc1ncnc2nc[nH]c12)c1cc2cccc(Cl)c2c(=O)n1-c1ccccc1
inactive: viability, T/C [1] 94.3% | viability, T/C [2] 95.8% | viability, T/C [3] 103% | viability, T/C [4] 103% | viability, T/C [5] 105% | viability, T/C [6] 98% | viability, T/C [7] 88.5% | viability, T/C [8] 92.5% | viability, T/C [9] 96.1% | viability, T/C [10] 89.8% | viability, T/C [11] 96.3% | viability, T/C [12] 100% | viability, T/C [13] 91% | viability, T/C [14] 96.6% | viability, T/C [15] 107% | viability, T/C [16] 99.7% | viability, T/C [17] 104% | viability, T/C [18] 90.5% | viability, T/C [19] 85.7% | viability, T/C [20] 90.4% | viability, T/C [21] 118% | viability, T/C [22] 102% | viability, T/C [23] 108% | viability, T/C [24] 123% | viability, T/C [25] 74.9% | viability, T/C [26] 70.3% | viability, T/C [27] 74.7% | viability, T/C [28] 86.2% | viability, T/C [29] 93.3% | viability, T/C [30] 82.7% | viability, T/C [31] 72.5% | viability, T/C [32] 57.5% | viability, T/C [33] 69.4% | viability, T/C [34] 72.8% | viability, T/C [35] 94.9% | viability, T/C [36] 74.9%
> 10000 nM: IC50 (second compound 0.0316 µM) | IC50 (second compound 0.1 µM) | IC50 (second compound 0.316 µM) | IC50 (second compound 1 µM) | IC50 (second compound 3.16 µM) | IC50 (second compound 10 µM)

Source: PubChem BioAssay AID1963985 (Molecular Pharmacology Branch, DTP, NCI, 2024)
